Test [1] deals with fetal hemoglobin gene HBG1. The experiment in a line: HBG1 Nanostring Assay in CD34+ HSPC erythroid differentiation culture. Format: cell-based, human. The following applies: for EC50: HBG1 induction, Day10 of erythroid differentiation; for Nanostring Ymax obs (%): relative to a control compound (C1). As for the experimental part:
A Nanostring Assay was performed to evaluate the ability of the compounds to induce expression of the fetal hemoglobin gene HBG1 in cells. The data are shown as EC50, with stronger inducers having a lower EC50 value and higher YMax.
Forty eight hours later (day −2), the cells were passaged at a density of 200,000 cells/ml (100 ul/well in 96well culture plate) in complete expantion media. The cells were plated at 200,000 cells/ml on day 0 and day 3, 400,000 cells/ml on day 5 in phase 1 erythroid differentiation containing StemSpan with 2.5 U/mL of EPO (R&D systems, 287-TC-500), 0.5 mg/mL of Holo-Transferrin (Sigma, T0665-500MG), 1× Glutamine (Gluta-Max) (Gibco, 35050-061), 5 μL/mL Lipid Mixture (Sigma, L0288-100ML), 50 ng/mL SCF (R&D Systems, 255-SV-050), 10 ng/mL IL-3 (R&D Systems, 203-IL010) and 10 ng/mL Insulin (Sigma, I9278-5ML) all 200 μl per well in 96 well culture plate. Cells were then passaged at 500,000 cells/ml and 200 μl per well on day 7 in phase 2 Erythroid differentiation (Phase 1 erythroid differentiation removing IL-3) until collection day (Day10). The culture conditions were used for both control DMSO as well as experimental treatments.
For all cell pasagings, cells were centrifuged at 300 g for 8 minutes at room temperature and cell number were normalized by MANTIS and Integra VIAFLO 384. All the compounds are diluted in DMSO and added to complete media by Formulatrix FAST and mixed starting from day −2. Cells were counted by Luna cell counter with AOPI Staining Solution (Nexcelom Bioscience, CS2-0106-25 mL) on day-2. Cells were counted by BD FACSCelesta Flow Cytometer with CountBright™ Plus Absolute Counting Beads (Thermal Fisher Scientific, C36995) and SYTOX AADvanced™ Ready Flow™ Reagent (Invitrogen, R37173) for other passages. Cells were cultured at 37° C. and 5% CO2. DMSO concentration was kept at 0.1% to minimize any effects to the cells by the vehicle. […] Compound plates were kept at room temperature to protect from light to avoid multiple freeze and thaw cycle.
On the collection day (Day10), 100K cells were collected and stored at −80° C. For direct hybridization for Nanostring, 100K cell pellet was lyzed in 25 μL of RLT (QIAGEN, 79216) with 1×β-Mercaptoethanol (Gibco, 21985-023) and shaked at 300-500 RPM for 5 minutes at room temperature. Cell lysate was stored in −80° C. after lysis.
All hybridizations were done in a total volume of 15 μL (3 μL of RNA lysate added to master mix of 12 μL probe A/B, capture probe/reporter probes, proteinase K and attenuation oligos suspended in hybridization buffer). Samples were hybridized at 67° C. for 22 hr. Following hybridization, the tripartide complexes were purified, immobilized by nCounter Prep Station and imaged by Digital Analyzer (nCounter MAX/FLEX Analysis System), to generate digital counts of barcodes corresponding to each target in the multiplexed reaction. Labeled barcodes obtained from unamplified extracts were counted at 555 images or field of view (FOV). The barcode counts for each sample were recorded in Reporter Code Count (RCC) files that are imported into nSolver analysis software (provided with CodeSet by NS) for quality control evaluation.
The quality control (QC) metric included limit of detection QC by checking for wells with less than 100 total counts for positive controls.
Hybridization signals were normalized against the ERCC positive controls and CodeSet Content (housekeeping gene). Briefly, this involved first calculating a sample-specific scaling factor by calculating arithmetic mean of geomeans of all ERCC positive controls with counts more than zero in all samples. Then this arithmetic mean was divided by the geometric mean of each lane to generate a lane-specific normalization factor. All negative controls and target-specific signal values were then normalized by multiplying counts values with their sample-specific scaling factor. The acceptable range for scaling factors is 0.3-3.0. […]

Test [2] has as its system Cullin-3 (CUL3) neddylation. The experiment in a line: AlphaLISA assay for Cullin-3 (CUL3) neddylation in TF 1 cells. Type of test: cell-based. The following applies: 3 hours treatment. In short, it runs like this:
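Neddylated CUL3 was quantified by AlphaLISA in lysates of TF 1 cells exposed for 3 h to test compound in IMDM without supplements. Percent inhibition set between vehicle and 1 μM DI-1548 positive control; IC50 derived by Hill-equation fitting of dose-response curves.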

Test [3] concerns the target DCN1 (DCUND1) protein PONY domain (Homo sapiens (Human), UniProt Q96GG9). Briefly: TR-FRET assay, DCN1 binding with FAM-labeled probe. In short, it runs like this: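 Binding was read as the TR-FRET ratio between a FAM-tagged inhibitor probe and Tb-labeled biotinylated E. coli-expressed DCN1 PONY domain, measured 1, 5 and 24 h after compound addition. The two setups used 5 nM protein/20 nM FAM-probe or 0.31 nM protein/900 nM total probe (100 nM labeled), in TritonX buffer with 200 mM NaCl.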
(In general: TR-FRET usually uses a lanthanide donor and a delayed reading to cut background.)

Another test has as its target DCN1 protein (Homo sapiens (Human), UniProt Q96GG9). Briefly: Intact Protein MS Analysis with the RapidFire-TOF System (covalent adduct formation). Type of test: binding. The following applies: MS Emax; 400 nM DCN1, 3 hours at room temperature. In short, it runs like this:
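Tag-cleaved human DCN1 (400 nM) expressed in E. coli, in 25 mM Tris-HCl, 200 mM NaCl, 1 mM DTT, was incubated with 11 compound concentrations for 3 h at room temperature and quenched with 0.2% formic acid. Intact-protein Q-TOF MS with deconvolution detected the compound adduct mass.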

Setting [4] is: 24 hr after treatment with compound, read-out: TR FRET IC50 24 hr.
The mark [5] stands for this setting: read-out: TR FRET IC50 1 hr, 1 hr after treatment with compound.
[6] abbreviates: TR FRET IC50 1 hr (nM), 1 hr after treatment with compound.

Read-outs that look alike come from different tables or passages of the source.

DCN1 (DCUND1) protein PONY domain, sequence (Q96GG9 60-248): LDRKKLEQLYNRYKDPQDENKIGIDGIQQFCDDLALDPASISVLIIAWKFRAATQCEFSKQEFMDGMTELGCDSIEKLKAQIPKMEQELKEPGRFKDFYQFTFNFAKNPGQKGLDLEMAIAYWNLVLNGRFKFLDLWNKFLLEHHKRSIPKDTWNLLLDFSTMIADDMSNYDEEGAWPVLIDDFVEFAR
DCN1 protein, sequence (Q96GG9 whole entry): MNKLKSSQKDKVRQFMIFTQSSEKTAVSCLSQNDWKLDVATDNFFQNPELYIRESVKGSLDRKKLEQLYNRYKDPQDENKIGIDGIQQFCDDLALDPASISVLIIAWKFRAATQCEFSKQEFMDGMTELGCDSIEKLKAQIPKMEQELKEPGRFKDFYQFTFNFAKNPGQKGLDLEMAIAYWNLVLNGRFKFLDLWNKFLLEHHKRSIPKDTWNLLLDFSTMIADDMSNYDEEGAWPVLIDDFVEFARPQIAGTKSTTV

In general, EC50 refers to the concentration giving half of the maximal effect. A higher EC50 goes with a less potent agent. In general, IC50 refers to the concentration at which inhibition is half-maximal. The compound `CCN1C(=O)[C@@H](NC(=O)c2cccc(C(F)(F)F)c2)[C@@H](c2ccc(F)cc2)c2c([C@@H](CCCO)NC#N)nn(-c3ccccc3)c21` [Compound I-399] showed an EC50 in test [1] (Homo sapiens, 240 h) of 0.1 to 1 µM. Besides, the “Nanostring Ymax obs (%)” value in test [1] is “++ (Nanostring Ymax greater than 50.0 and less than or equal to 100.0)”. Also, the IC50 in test [2] (Homo sapiens, TF-1, 3 h) is at most 0.1 µM; in test [3] (setting [4]) it was at most 200 nM; in test [3] (setting [5]), at most 200 nM.

With `C=C(CN1C2CCC1COC2)C(=O)NCc1nn(-c2ccccc2)c2c1[C@H](c1ccc(F)cc1)[C@H](NC(=O)c1cccc(C(F)(F)F)c1)C(=O)N2CC` (mixture of isomers) [Compound I-613], the “Nanostring Ymax obs (%)” value in test [1] is “+++ (Nanostring Ymax greater than 100.0)”. Moreover, the IC50 in test [2] (Homo sapiens, TF-1, 3 h) was at most 0.1 µM; in test [3] (setting [4]), at most 200 nM; in test [3] (setting [5]), at most 200 nM.

`C=C(CN1CC(C)(O)C1)C(=O)NCc1nn(-c2ccccc2)c2c1[C@H](c1ccc(F)cc1)[C@H](NC(=O)c1cccc(C(F)(F)F)c1)C(=O)N2CC` [Compound I-643] registered an EC50 in test [1] (Homo sapiens, 240 h) of at most 0.1 µM. Also, the “Nanostring Ymax obs (%)” value in test [1] was “++ (Nanostring Ymax greater than 50.0 and less than or equal to 100.0)”. The half-inhibitory concentration (IC50) was at most 0.1 µM in test [2] (Homo sapiens, TF-1, 3 h); at most 200 nM in test [3] (setting [4]); at most 200 nM in test [3] (setting [5]).

Take `C=C(CN1CCN(C2COC2)CC1)C(=O)NCc1nn(-c2ccccc2)c2c1[C@@H](c1ccc(F)cc1)[C@H](NC(=O)c1cccc(C(F)(F)F)c1)C(=O)N2CC` (racemic) [Compound I-40]: the “Nanostring Ymax obs (%)” value in test [1] was “++ (Nanostring Ymax greater than 50.0 and less than or equal to 100.0)”. In addition, the IC50 in test [2] (Homo sapiens, TF-1, 3 h) is at most 0.1 µM; in test [3] (setting [4]), at most 200 nM; in test [3] (setting [5]) it was at most 200 nM.

For the compound `C=C(CN1CC(O)C1)C(=O)NCc1nn(-c2ccccc2)c2c1[C@H](c1ccc(F)cc1)[C@H](NC(=O)c1cccc(C(F)(F)F)c1)C(=O)N2CC` [Compound I-459], the concentration giving a half-maximal response (EC50) in test [1] (Homo sapiens, 240 h) is at most 0.1 µM. Further, the “Nanostring Ymax obs (%)” value in test [1] is “++ (Nanostring Ymax greater than 50.0 and less than or equal to 100.0)”. For the same compound, the IC50 is at most 0.1 µM in test [2] (Homo sapiens, TF-1, 3 h); at most 200 nM in test [3] (setting [4]); at most 200 nM in test [3] (setting [5]).

With `CCN1C(=O)[C@H](NC(=O)c2cccc(C(F)(F)F)c2)[C@H](c2ccc(F)cc2)c2c(C(=O)N3C[C@H](F)C[C@@H]3C#N)nn(-c3ccccc3)c21` (mixture of isomers) [Compound I-253, N-((4RS,5RS)-3-((2R,4R)-2-cyano-4-fluoropyrrolidine-1-carbonyl)-7-ethyl-4-(4-fluorophenyl)-6-oxo-1-phenyl-4,5,6,7-tetrahydro-1H-pyrazolo[3,4-b]pyridine-5-yl)-3-(trifluoromethyl)benzamide], the EC50 in test [1] (Homo sapiens, 240 h) is above 1 µM. Besides, in test [1], the “Nanostring Ymax obs (%)” value is “++ (Nanostring Ymax greater than 50.0 and less than or equal to 100.0)”. Further, the IC50 was at most 0.1 µM in test [2] (Homo sapiens, TF-1, 3 h); at most 200 nM in test [3] (setting [4]); 1000 to 3000 nM in test [3] (setting [6]).

With `C=C(CN(C)C1COC1)C(=O)NCc1nn(-c2ccccc2)c2c1[C@H](c1ccc(F)cc1)[C@H](NC(=O)c1cccc(C(F)(F)F)c1)C(=O)N2CC` (racemic) [Compound I-102], the “Nanostring Ymax obs (%)” value in test [1] is “++ (Nanostring Ymax greater than 50.0 and less than or equal to 100.0)”. The IC50 is at most 0.1 µM in test [2] (Homo sapiens, TF-1, 3 h); at most 200 nM in test [3] (setting [4]); at most 200 nM in test [3] (setting [5]).

With `CCN1C(=O)[C@@H](NC(=O)c2cccc(C(F)(F)F)c2)[C@@H](c2ccc(F)cc2)c2c(C(=O)N[C@@H](C)C#N)nn(-c3ccccc3)c21` [Compound I-254, (4S,5S)—N—((S)-1-cyanoethyl)-7-ethyl-4-(4-fluorophenyl)-6-oxo-1-phenyl-5-(3-(trifluoromethyl)benzamido)-4,5,6,7-tetrahydro-1H-pyrazolo[3,4-b]pyridine-3-carboxamide], the EC50 in test [1] (Homo sapiens, 240 h) is above 1 µM. Also, in test [1], the “Nanostring Ymax obs (%)” value was “++ (Nanostring Ymax greater than 50.0 and less than or equal to 100.0)”. Also, the IC50 in test [2] (Homo sapiens, TF-1, 3 h) was at most 0.1 µM; in test [3] (setting [4]), at most 200 nM; in test [3] (setting [6]), 200 to 1000 nM.

Consider `C=C(CN1CC2(CCOC2)C1)C(=O)NCc1nn(-c2ccccc2)c2c1[C@H](c1ccc(F)cc1)[C@H](NC(=O)c1cccc(C(F)(F)F)c1)C(=O)N2CC` [Compound I-677], for which, in test [1], the “Nanostring Ymax obs (%)” value was “+++ (Nanostring Ymax greater than 100.0)”. The IC50 was at most 0.1 µM in test [2] (Homo sapiens, TF-1, 3 h); at most 200 nM in test [3] (setting [4]); at most 200 nM in test [3] (setting [5]).

`COC(=O)/C=C/CN(C)Cc1nn(-c2ccccc2)c2c1[C@H](c1ccc(F)cc1)[C@H](NC(=O)c1cccc(C(F)(F)F)c1)C(=O)N2CC(C)C` [I-266] came in with an EC50 in test [1] above 1 µM. In test [1], the “Nanostring Ymax obs (%)” value was “+ (Nanostring Ymax greater than or equal to 0.0 and less than or equal to 50.0)”. For the same compound, the IC50 is 0.1 to 1 µM in test [2], 200 to 1000 nM in test [3] (setting [4]) and 200 to 1000 nM in test [3] (setting [5]).

Regarding `C=CS(=O)(=O)NCc1nn(-c2ccccc2)c2c1[C@H](c1ccc(F)cc1)[C@H](NC(=O)c1cccc(C(F)(F)F)c1)C(=O)N2CC` (racemic) [Compound I-230], the EC50 in test [1] (Homo sapiens, 240 h) is above 1 µM. Besides, the “Nanostring Ymax obs (%)” value in test [1] is “++ (Nanostring Ymax greater than 50.0 and less than or equal to 100.0)”. The compound further had an IC50 in test [2] (Homo sapiens, TF-1, 3 h) of at most 0.1 µM.

In the case of `CCN1C(=O)[C@@H](NC(=O)c2cccc(C(F)(F)F)c2)[C@@H](c2ccc(F)cc2)c2c(C(=O)N3CCS(=O)(=O)CC3C#N)nn(-c3ccccc3)c21` (stereo partly drawn) [Compound I-325], the IC50 is at most 0.1 µM in test [2] (Homo sapiens, TF-1, 3 h); at most 200 nM in test [3] (setting [4]); at most 200 nM in test [3] (setting [5]). For the same compound, the “% Adduct Formation” value at DCN1 protein was “+++ (MS Emax % adduct formation greater than 80.0 and less than or equal to 100.0)”.

In the case of `C=C(CN1CC2(COC2)C1)C(=O)NCc1nn(-c2ccccc2)c2c1[C@H](c1ccc(F)cc1)[C@@H](NC(=O)c1cccc(C(F)(F)F)c1)C(=O)N2CC` [Compound I-149], the IC50 is at most 0.1 µM in test [2] (Homo sapiens, TF-1, 3 h); at most 200 nM in test [3] (setting [4]); at most 200 nM in test [3] (setting [5]). Moreover, the “% Adduct Formation” value at DCN1 protein is “+++ (MS Emax % adduct formation greater than 80.0 and less than or equal to 100.0)”.
